Results: patent publication US20210220494A1, “COMPOSITIONS AND METHODS FOR TARGETED PARTICLE PENETRATION, DISTRIBUTION, AND RESPONSE IN MALIGNANT BRAIN TUMORS” (Memorial Sloan Kettering Cancer Center, priority 2016, published 2021)

Experiments:
macrophages = settings: cited from earlier work
[1] = cited from earlier work
ECLC26 flank tumor = settings: ECLC26 flank tumors, multi-dose, caliper measurements
Procedure: Tumor volume was measured using caliper measurements of the maximal dimensions of the tumor daily.
Nude mice were implanted with 2 million ECLC26 cells. Mice bearing tumors were treated by i.v. of 200 μL saline or 15 μM Gef-NDC for 2 doses of Gavage with 15 mg/ml Gefitinib, 10 μL/g for 10 days.

NSCLC CNS metastases = settings: pulsatile high-dose, cited from earlier work

Q: For `CNC(=O)c1cc(Oc2ccc3nc(N[C@@H]4CCCC[C@H]4O)sc3c2)ccn1` [BLZ945], which “expression of M2 polarization markers in TAMs” value (macrophages) is on record?
A: Its value is “decreased expression of M2 polarization markers”.

Q: What about the “phagocytic activity of macrophages” value (macrophages) of the same compound?
A: The value was “upregulated”.

Q: Which protein binding [1] does the source give for `COc1cc2ncnc(Nc3ccc(F)c(Cl)c3)c2cc1OCCCN1CCOCC1` [Gefitinib, gefitinib] here?
A: Its protein binding is “highly protein bound”.

Q: And the “tumor volume over time” value (ECLC26 flank tumor)?
A: Its value is “steady decrease in tumor volume”.

Q: Which “response of CNS metastases” value (NSCLC CNS metastases; 3 patients) does the source give for `C#Cc1cccc(Nc2ncnc3cc(OCCOC)c(OCCOC)cc23)c1` [erlotinib] here?
A: The value was “the response is unpredictable, even at high dose”.

Q: And the CNS penetration (NSCLC CNS metastases; patients)?
A: Its CNS penetration is “improves CNS penetration for NSCLC metastases”.
